Data on 19 compounds can be found in US20110044938A1 (NYCOMED GMBH, priority 2006, published 2011).

Assay [1] has as its system subclones of RKO colon adenocarcinoma cells (RKOp27 or RKOp21) arrested by Ponasterone A. Nature of the assay: Alamar Blue cell viability assay, cell cycle specific mode of action: cells arrested by ectopic p27Kip1 induced by Ponasterone A versus proliferating cells. Format: cell-based. The settings on record: Homo sapiens, RKO p27 induced (arrested) cells, 10 μM Ponasterone A, 72 hours, value = class bound given in Table A, read-out: −logIC50 RKO p27 induced (arrested) (converted). The gist of the method: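 Viability of proliferating versus Ponasterone A (10 μM)-arrested RKOp27/RKOp21 cells after 72 h compound exposure at 37° C, in quadruplicate. Read-out is Alamar Blue fluorescence (544/590 nm) normalised to untreated cells = 100%; values as −log IC50.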

The test system of assay [2] is RKO (RKOp27) human colon adenocarcinoma cells. Nature of the assay: Alamar Blue cell viability assay, anti-proliferative/cytotoxic activity on proliferating RKO subclones. Format: cell-based. The settings on record: RKOp27, 72 h, RKO p27 uninduced (proliferating) cells, value = class bound given in Table A, read-out: −logIC50 RKO p27 uninduced (proliferating) (converted). The gist of the method:
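Alamar Blue fluorescence (ex 544, em 590 nm) after 72 h compound exposure at 37 °C, 5% CO2, normalised to untreated controls set at 100%. Cells were seeded at 5000 per well and dosed 24 h later with serial semi-logarithmic dilutions in 10% FCS DMEM, four replicates each. −log IC50 [mol/l] was derived from concentration-effect curves.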

With `COc1cccc(C(C)CC(=O)Nc2sc3c(c2C#N)CCC(OC(=O)NCc2cn(C)nc2C)C3)c1` (centres unmarked) [Example 276, (1,3-Dimethyl-1H-pyrazol-4-ylmethyl)-carbamic acid 3-cyano-2-[3-(3-methoxy-phenyl)-butanoylamino]-4,5,6,7-tetrahydro-benzo[b]thiophen-6-yl ester], the values for the IC50 in assay [1] and in assay [2] were at least 100000 nM and at most 501 nM, respectively.
The like results for `COc1cccc(C(C)CC(=O)Nc2sc3c(c2C#N)CCC(OC(=O)NCc2ccnn2C)C3)c1` (centres unmarked) [Example 277, (2-Methyl-2H-pyrazol-3-ylmethyl)-carbamic acid 3-cyano-2-[3-(3-methoxy-phenyl)-butanoylamino]-4,5,6,7-tetrahydro-benzo[b] thiophen-6-yl ester] were, in that order, at least 100000 nM and at most 501 nM.
The matching figures for `CCNC(=O)OCC1CCc2c(sc(NC(=O)CC(C)c3cccnc3)c2C#N)C1` (centres unmarked) [Example 278, Ethyl-carbamic acid 3-cyano-2-(3-pyridin-3-yl-butanoylamino)-4,5,6,7-tetrahydro-benzo[b] thiophen-6-ylmethyl ester]: at least 100000 nM and 501 to 2000 nM.
The like results for `COc1cccc(C(C)CC(=O)Nc2sc3c(c2C#N)CCC(OC(=O)NCCn2ccnc2)C3)c1` (centres unmarked) [Example 280, (2-Imidazol-1-yl-ethyl)-carbamic acid 3-cyano-2-[3-(3-methoxy-phenyl)-butanoylamino]-4,5,6,7-tetrahydro-benzo[b] thiophen-6-yl ester] were, in that order, at least 50100 nM and 501 to 2000 nM.
Take `CC(CC(=O)Nc1sc2c(c1C#N)CCC(COC(=O)NCc1cnn(C)c1)C2)c1cccnc1` (centres unmarked) [Example 281, (1-Methyl-1H-pyrazol-4-ylmethyl)-carbamic acid 3-cyano-2-(3-pyridin-3-yl-butanoyl-amino)-4,5,6,7-tetrahydro-benzo[b] thiophen-6-ylmethyl ester]: the IC50 was at least 100000 nM in assay [1] and 501 to 2000 nM in assay [2].
On to `Cc1cc(CNC(=O)OCC2CCc3c(sc(NC(=O)CC(C)c4cccnc4)c3C#N)C2)no1` (centres unmarked) [Example 282, (5-Methyl-isoxazol-3-ylmethyl)-carbamic acid 3-cyano-2-(3-pyridin-3-yl-butanoylamino)-4,5,6,7-tetrahydro-benzo[b]thiophen-6-ylmethyl ester], for which the figures for the IC50 in assay [1] and in assay [2] were at least 100000 nM and at most 501 nM, respectively.
The matching figures for `CC(CC(=O)Nc1sc2c(c1C#N)CCC(COC(=O)NC(C)c1ccccc1)C2)c1cccnc1` (centres unmarked) [Example 283, (1-Phenyl-ethyl)-carbamic acid 3-cyano-2-(3-pyridin-3-yl-butanoylamino)-4,5,6,7-tetrahydro-benzo[b]thiophen-6-ylmethyl ester]: at least 100000 nM and 501 to 2000 nM.
The like results for `CC(CC(=O)Nc1sc2c(c1C#N)CCC(COC(=O)NC(C)c1cccnc1)C2)c1cccnc1` (centres unmarked) [Example 284, (1-Pyridin-3-yl-ethyl)-carbamic acid 3-cyano-2-(3-pyridin-3-yl-butanoyl-amino)-4,5,6,7-tetrahydro-benzo[b]thiophen-6-ylmethyl ester] were, in that order, at least 50100 nM and 501 to 2000 nM.
Regarding `CC(CC(=O)Nc1sc2c(c1C#N)CCC(COC(=O)NCc1cccn1C)C2)c1cccnc1` (centres unmarked) [Example 285, (1-Methyl-1H-pyrrol-2-ylmethyl)-carbamic acid 3-cyano-2-(3-pyridin-3-yl-butanoylamino)-4,5,6,7-tetrahydro-benzo[b]thiophen-6-ylmethyl ester], the results for the IC50 in assay [1] and in assay [2] were at least 50100 nM and 501 to 2000 nM, respectively.
Consider `CCn1nccc1CNC(=O)OC1CCc2c(sc(NC(=O)CC(C)c3cccc(OC)c3)c2C#N)C1` (centres unmarked) [Example 286, (2-Ethyl-2H-pyrazol-3-ylmethyl)-carbamic acid 3-cyano-2-[3-(3-methoxy-phenyl)-butanoylamino]-4,5,6,7-tetrahydro-benzo[b] thiophen-6-yl ester], for which the results for the IC50 in assay [1] and in assay [2] were at least 100000 nM and at most 501 nM, respectively.
The like results for `CC(CC(=O)Nc1sc2c(c1C#N)CCC(OC(=O)NCc1ccccn1)C2)c1ccccc1` (centres unmarked) [Example 287, Pyridin-2-ylmethyl-carbamic acid 3-cyano-2-(3-phenyl-butanoylamino)-4,5,6,7-tetrahydro-benzo[b] thiophen-6-yl ester] were, in that order, at least 10000 nM and 501 to 2000 nM.
Consider `CC(CC(=O)Nc1sc2c(c1C#N)CCC(OC(=O)NCc1cccnc1)C2)c1ccccc1` (centres unmarked) [Example 288, Pyridin-3-ylmethyl-carbamicacid 3-cyano-2-(3-phenyl-butanoyl-amino)-4,5,6,7-tetrahydro-benzo[b]thiophen-6-yl ester], for which the IC50 was at least 10000 nM in assay [1] and at most 501 nM in assay [2].
The matching figures for `CC(CC(=O)Nc1sc2c(c1C#N)CCC(OC(=O)NCc1ccncc1)C2)c1ccccc1` (centres unmarked) [Example 289, Pyridin-4-ylmethyl-carbamic acid 3-cyano-2-(3-phenyl-butanoylamino)-4,5,6,7-tetrahydro-benzo[b] thiophen-6-yl ester]: at least 10000 nM and at most 501 nM.
Turning to `CC(CC(=O)Nc1sc2c(c1C#N)CCC(OC(=O)NCCc1cccnc1)C2)c1ccccc1` (centres unmarked) [Example 290, (2-Pyridin-3-yl-ethyl)-carbamic acid 3-cyano-2-(3-phenyl-butanoyl-amino)-4,5,6,7-tetrahydro-benzo[b]thiophen-6-yl ester], the IC50 in assay [1] was at least 10000 nM; in assay [2] it was at most 501 nM.
`CC(CC(=O)Nc1sc2c(c1C#N)CCC(OC(=O)NC1CCOCC1)C2)c1ccccc1` (centres unmarked) [Example 291, (Tetrahydro-pyran-4-yl)-carbamic acid 3-cyano-2-(3-phenyl-butanoyl-amino)-4,5,6,7-tetrahydro-benzo[b]thiophen-6-yl ester]: the IC50 is at least 10000 nM in assay [1] and at most 501 nM in assay [2].
The like results for `CC(CC(=O)Nc1sc2c(c1C#N)CCC(OC(=O)NCc1nccn1C)C2)c1ccccc1` (centres unmarked) [Example 292, (1-Methyl-1H-imidazol-2-ylmethyl)-carbamic acid 3-cyano-2-(3-phenyl-butanoylamino)-4,5,6,7-tetrahydro-benzo[b] thiophen-6-yl ester] were, in that order, at least 10000 nM and 501 to 2000 nM.
Regarding `CC(CC(=O)Nc1sc2c(c1C#N)CCC(OC(=O)NCc1ccnn1C)C2)c1ccccc1` (centres unmarked) [Example 293, (2-Methyl-2H-pyrazol-3-ylmethyl)-carbamic acid 3-cyano-2-(3-phenyl-butanoylamino)-4,5,6,7-tetrahydro-benzo[b] thiophen-6-yl ester], the values for the IC50 in assay [1] and in assay [2] were at least 50100 nM and at most 501 nM, respectively.
For the compound `Cc1cc(CNC(=O)OC2CCc3c(sc(NC(=O)CC(C)c4ccccc4)c3C#N)C2)no1` (centres unmarked) [Example 295, (5-Methyl-isoxazol-3-ylmethyl)-carbamic acid 3-cyano-2-(3-phenyl-butanoylamino)-4,5,6,7-tetrahydro-benzo[b] thiophen-6-yl ester], the IC50 in assay [1] was at least 50100 nM; in assay [2], at most 501 nM.
The matching figures for `CC(CC(=O)Nc1sc2c(c1C#N)CCC(OC(=O)NCC1CCCCO1)C2)c1ccccc1` (centres unmarked) [Example 296, (Tetrahydropyran-2-ylmethyl)-carbamic acid 3-cyano-2-(3-phenyl-butanoylamino)-4,5,6,7-tetrahydro-benzo[b]thiophen-6-yl ester]: at least 50100 nM and 501 to 2000 nM.
